For orientation: IC50 means the concentration that gives 50% inhibition.

From patent US9708316B2 (BRISTOL-MYERS SQUIBB COMPANY, priority 2014, dated 2017) come the findings set out here.

Experiment [1] concerns the target HIS-TGFβR2 WT (Homo sapiens, UniProt P37173). Put plainly: HTRF probe-displacement assay, HIS-TGFβR2 WT. Type of experiment: binding. On the technique in general: Time-resolved FRET reads energy transfer from a long-lived donor to a nearby acceptor.
The target of experiment [2] is T1, HIS-TGFβR1 T204D (Homo sapiens, UniProt P36897, T204D).
T1 sequence (P36897 34-503 T204D): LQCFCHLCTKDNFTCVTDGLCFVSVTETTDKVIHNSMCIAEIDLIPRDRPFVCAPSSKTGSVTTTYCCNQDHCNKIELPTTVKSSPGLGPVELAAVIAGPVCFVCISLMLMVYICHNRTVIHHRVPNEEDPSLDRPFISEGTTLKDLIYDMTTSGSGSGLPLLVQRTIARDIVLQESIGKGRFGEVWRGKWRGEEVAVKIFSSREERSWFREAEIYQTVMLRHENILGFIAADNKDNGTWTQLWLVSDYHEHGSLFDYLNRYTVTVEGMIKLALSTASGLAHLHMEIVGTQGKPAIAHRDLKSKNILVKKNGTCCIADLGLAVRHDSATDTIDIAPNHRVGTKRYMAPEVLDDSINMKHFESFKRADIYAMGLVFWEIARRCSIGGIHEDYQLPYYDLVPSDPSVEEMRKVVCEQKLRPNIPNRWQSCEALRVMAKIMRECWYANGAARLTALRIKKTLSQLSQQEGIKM
Put plainly: HTRF probe-displacement assay, HIS-TGFβR1 T204D. Type of experiment: binding. The conditions noted are these: read-out: TGFβR1 (μM) IC50.

Chain of HIS-TGFβR2 WT (P37173 23-567): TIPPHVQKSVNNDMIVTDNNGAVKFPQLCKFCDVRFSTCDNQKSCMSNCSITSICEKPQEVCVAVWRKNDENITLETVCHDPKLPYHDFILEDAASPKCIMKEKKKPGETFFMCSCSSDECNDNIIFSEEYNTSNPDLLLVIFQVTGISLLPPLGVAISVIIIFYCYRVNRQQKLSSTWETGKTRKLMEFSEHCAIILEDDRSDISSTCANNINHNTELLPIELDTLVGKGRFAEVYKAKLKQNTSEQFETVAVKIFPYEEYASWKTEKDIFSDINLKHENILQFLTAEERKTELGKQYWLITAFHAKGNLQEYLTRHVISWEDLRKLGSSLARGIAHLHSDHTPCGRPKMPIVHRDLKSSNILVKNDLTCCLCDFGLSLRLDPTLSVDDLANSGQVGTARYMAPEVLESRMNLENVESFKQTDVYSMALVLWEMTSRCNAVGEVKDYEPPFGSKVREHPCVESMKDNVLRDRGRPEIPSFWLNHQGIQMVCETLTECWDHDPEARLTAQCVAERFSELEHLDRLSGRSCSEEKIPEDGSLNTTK

For `O=C(CN1CCOCC1)Nc1cc(-c2[nH]c3cc(Cl)cnc3c2-c2ccc(F)cn2)ccn1` [Example 74, N-{4-[6-Chloro-3-(5-fluoropyridin-2-yl)-1H-pyrrolo[3,2-b]pyridin-2-yl]pyridin-2-yl}-2-(morpholin-4-yl)acetamide], the results for the IC50 in experiment [1] and in experiment [2] were 2.6 µM and 0.001 µM, respectively.
For `O=C(CNCCO)Nc1cc(-c2[nH]c3cc(Cl)cnc3c2-c2ccc(F)cn2)ccn1` [Example 75, N-{4-[6-Chloro-3-(5-fluoropyridin-2-yl)-1H-pyrrolo[3,2-b]pyridin-2-yl]pyridin-2-yl}-2-[(2-hydroxyethyl)amino]acetamide], in that order: 1.03 µM and 0.005 µM.
For `COc1ccc(-c2c(-c3ccnc(NC(C)=O)c3)[nH]c3ccc(OC)nc23)cn1` [Example 76, N-(4-(5-Methoxy-3-(6-methoxypyridin-3-yl)-1H-pyrrolo[3,2-b]pyridin-2-yl)pyridin-2-yl)acetamide], in that order: 0.93 µM and 0.016 µM.
For the molecule `COc1ccc2[nH]c(-c3ccnc(NC(C)=O)c3)c(-c3cccc(Cl)n3)c2n1` [Example 77], the IC50 in experiment [1] was above 15 µM; in experiment [2], 0.033 µM.
Consider `COc1ccc(-c2c(-c3ccnc(NC(C)=O)c3)[nH]c3cc(C#N)cnc23)cn1` [Example 78, N-(4-(6-Cyano-3-(6-methoxypyridin-3-yl)-1H-pyrrolo[3,2-b]pyridin-2-yl)pyridin-2-yl)acetamide], for which the half-maximal inhibitory concentration (IC50) is 0.16 µM in experiment [1] and 0.003 µM in experiment [2].
As for `COc1ccc(-c2c(-c3ccnc(NC(C)=O)c3)[nH]c3cc(CN)cnc23)cn1` [Example 79, N-(4-(6-(Aminomethyl)-3-(6-methoxypyridin-3-yl)-1H-pyrrolo[3,2-b]pyridin-2-yl)pyridin-2-yl)acetamide], the IC50 turned out to be 0.16 µM in experiment [1] and 0.007 µM in experiment [2].
For `COc1ccc(-c2c(-c3ccnc(NC(C)=O)c3)[nH]c3c(C#N)ccnc23)cn1` [Example 80, N-(4-(7-Cyano-3-(6-methoxypyridin-3-yl)-1H-pyrrolo[3,2-b]pyridin-2-yl)pyridin-2-yl)acetamide], in that order: 0.083 µM and 0.007 µM.
In the case of `COc1ccc(-c2c(-c3ccnc(NC(C)=O)c3)[nH]c3c(CN)ccnc23)cn1` [Example 81, N-(4-(7-(Aminomethyl)-3-(6-methoxypyridin-3-yl)-1H-pyrrolo[3,2-b]pyridin-2-yl)pyridin-2-yl)acetamide], the figures for the 50% inhibitory concentration (IC50) in experiment [1] and in experiment [2] were 0.26 µM and 0.014 µM, respectively.
The corresponding values for `CNc1cc(-c2[nH]c3cc(Cl)cnc3c2-c2ccc(F)cn2)ccn1` [Example 82, 4-[6-Chloro-3-(5-fluoropyridin-2-yl)-1H-pyrrolo[3,2-b]pyridin-2-yl]-N-methylpyridin-2-amine] are 4.05 µM and 0.006 µM.
The corresponding values for `COc1ccc(-c2c(-c3ccnc(NC(C)=O)c3)[nH]c3cc(Br)cnc23)nc1` [Example 83, N-{4-[6-Bromo-3-(5-methoxypyridin-2-yl)-1H-pyrrolo[3,2-b]pyridin-2-yl]pyridin-2-yl}acetamide] are above 15 µM and 0.002 µM.
The corresponding values for `COC(=O)Nc1cc(-c2[nH]c3cccnc3c2-c2ccc(OC)nc2)ccn1` [Example 84, Methyl N-{4-[3-(6-methoxypyridin-3-yl)-1H-pyrrolo[3,2-b]pyridin-2-yl]pyridin-2-yl}carbamate] are 0.13 µM and 0.002 µM.
In the case of `COC(=O)Nc1cc(-c2[nH]c3cc(Cl)cnc3c2-c2ccc(F)cn2)ccn1` [Example 85, Methyl N-{4-[6-chloro-3-(5-fluoropyridin-2-yl)-1H-pyrrolo[3,2-b]pyridin-2-yl]pyridin-2-yl}carbamate], the 50% inhibitory concentration (IC50) in experiment [1] came to 4.05 µM; in experiment [2] it was 0.01 µM.
For `COc1ccc(-c2c(-c3ccnc(N)c3)[nH]c3cc(Cl)cnc23)nc1` [Example 86, 4-[6-Chloro-3-(5-methoxypyridin-2-yl)-1H-pyrrolo[3,2-b]pyridin-2-yl]pyridin-2-amine], in that order: above 15 µM and 0.008 µM.
The corresponding values for `COC(=O)Nc1cc(-c2[nH]c3cc(Cl)cnc3c2-c2ccc(OC)cn2)ccn1` [Example 87, Methyl N-{4-[6-chloro-3-(5-methoxypyridin-2-yl)-1H-pyrrolo[3,2-b]pyridin-2-yl]pyridin-2-yl}carbamate] are above 15 µM and 0.002 µM.
Consider `CN1CCN(CC(=O)Nc2cc(-c3[nH]c4cc(Cl)cnc4c3-c3ccc(F)cn3)ccn2)CC1` [Example 88, N-{4-[6-Chloro-3-(5-fluoropyridin-2-yl)-1H-pyrrolo[3,2-b]pyridin-2-yl]pyridin-2-yl}-2-(4-methylpiperazin-1-yl)acetamide], for which the half-inhibitory concentration (IC50) came to 9.92 µM in experiment [1] and 0.001 µM in experiment [2].
The corresponding values for `O=C(CNCCCN1CCOCC1)Nc1cc(-c2[nH]c3cc(Cl)cnc3c2-c2ccc(F)cn2)ccn1` [Example 89, N-{4-[6-Chloro-3-(5-fluoropyridin-2-yl)-1H-pyrrolo[3,2-b]pyridin-2-yl]pyridin-2-yl}-2-{[3-(morpholin-4-yl)propyl]amino}acetamide] are 4.81 µM and 0.003 µM.
With `COc1ccc(-c2c(-c3ccnc(NC(C)=O)c3)[nH]c3cc(S(C)(=O)=O)cnc23)nc1` [Example 91, N-{4-[6-Methanesulfonyl-3-(5-methoxypyridin-2-yl)-1H-pyrrolo[3,2-b]pyridin-2-yl]pyridin-2-yl}acetamide], the IC50 in experiment [1] was above 15 µM; in experiment [2], 0.019 µM.
For `COc1ccc(-c2c(-c3ccnc(NC(C)=O)c3)[nH]c3cc(C#N)cnc23)nc1` [Example 92, N-{4-[6-Cyano-3-(5-methoxypyridin-2-yl)-1H-pyrrolo[3,2-b]pyridin-2-yl]pyridin-2-yl}acetamide], in that order: above 15 µM and 0.002 µM.
For `COc1ccc(-c2c(-c3ccnc(NC(C)=O)c3)[nH]c3cc(-c4c(C)noc4C)cnc23)nc1` [Example 93, N-{4-[6-(Dimethyl-1,2-oxazol-4-yl)-3-(5-methoxypyridin-2-yl)-1H-pyrrolo[3,2-b]pyridin-2-yl]pyridin-2-yl}acetamide], in that order: above 15 µM and 0.003 µM.
`COc1ccc(-c2c(-c3ccnc(NC(C)=O)c3)[nH]c3cc(-c4c(C)nnn4C)cnc23)nc1` [Example 94, N-{4-[6-(Dimethyl-1H-1,2,3-triazol-5-yl)-3-(5-methoxypyridin-2-yl)-1H-pyrrolo[3,2-b]pyridin-2-yl]pyridin-2-yl}acetamide]: the half-inhibitory concentration (IC50) was above 15 µM in experiment [1] and 0.004 µM in experiment [2].
For `COCCOc1cnc2c(-c3ccc(OC)cn3)c(-c3ccnc(NC(C)=O)c3)[nH]c2c1` [Example 95, N-(4-(6-(2-Methoxyethoxy)-3-(5-methoxypyridin-2-yl)-1H-pyrrolo[3,2-b]pyridin-2-yl)pyridin-2-yl)acetamide], in that order: above 15 µM and 0.002 µM.
For `CCOc1cnc2c(-c3ccc(OC)cn3)c(-c3ccnc(NC(C)=O)c3)[nH]c2c1` [Example 96, N-(4-(6-Ethoxy-3-(5-methoxypyridin-2-yl)-1H-pyrrolo[3,2-b]pyridin-2-yl)pyridin-2-yl)acetamide], in that order: above 15 µM and 0.001 µM.
For `COCC(C)Oc1cnc2c(-c3ccc(OC)cn3)c(-c3ccnc(NC(C)=O)c3)[nH]c2c1` (centres unmarked) [Example 97, N-(4-(6-((1-Methoxypropan-2-yl)oxy)-3-(5-methoxypyridin-2-yl)-1H-pyrrolo[3,2-b]pyridin-2-yl)pyridin-2-yl)acetamide], in that order: above 15 µM and 0.001 µM.
Regarding `COc1ccc(-c2c(-c3ccnc(NC(C)=O)c3)[nH]c3cc(OC4COC4)cnc23)nc1` [Example 98, N-(4-(3-(5-Methoxypyridin-2-yl)-6-(oxetan-3-yloxy)-1H-pyrrolo[3,2-b]pyridin-2-yl)pyridin-2-yl)acetamide], the 50% inhibitory concentration (IC50) in experiment [1] was above 15 µM; in experiment [2], 0.002 µM.
The corresponding values for `[2H]C([2H])([2H])Oc1ccc(-c2c(-c3ccnc(NC(C)=O)c3)[nH]c3cc(Cl)cnc23)nc1` [Example 105, N-(4-(6-Chloro-3-(5-(methoxy-d3)pyridin-2-yl)-1H-pyrrolo[3,2-b]pyridin-2-yl)pyridin-2-yl)acetamide] are above 15 µM and 0.005 µM.
With `CC(=O)Nc1cc(-c2[nH]c3cccnc3c2-c2nc(C)ccc2F)ccn1` [Example 107, N-(4-(3-(3-Fluoro-6-methylpyridin-2-yl)-1H-pyrrolo[3,2-b]pyridin-2-yl)pyridin-2-yl)acetamide], the IC50 stood at 8.14 µM in experiment [1] and 0.001 µM in experiment [2].
For `CC(=O)Nc1cc(-c2[nH]c3cccnc3c2-c2ccc(C(F)F)cn2)ccn1` [Example 108, N-(4-(3-(5-(Difluoromethyl)pyridin-2-yl)-1H-pyrrolo[3,2-b]pyridin-2-yl)pyridin-2-yl)acetamide], in that order: above 15 µM and 0.145 µM.
Consider `COc1cnc2c(-c3ccc(C(F)F)cn3)c(-c3ccnc(NC(C)=O)c3)[nH]c2c1` [Example 110, N-(4-(3-(5-(Difluoromethyl)pyridin-2-yl)-6-methoxy-1H-pyrrolo[3,2-b]pyridin-2-yl)pyridin-2-yl)acetamide], for which the results for the IC50 in experiment [1] and in experiment [2] were above 15 µM and 0.053 µM, respectively.
